Values after ≈ are worked out from the molar mass of the structure shown.
How the values were obtained:
Format in all cases: cell-based
E. coli (ATCC 25922) = assay: antibacterial microdilution assay, E. coli; settings: 6 h at 37 °C
Procedure: (§1) The isolates were evaluated in vitro for their cytotoxic activities against two human cancer cell lines, namely lung carcinoma (A549) and colon adenocarcinoma (DLD-1), as well as against one healthy cell line (WS1) using the resazurin reduction test. Etoposide was used as a positive control (IC50 ≤ 1.0 µM). […] The antibacterial activity of isolated compounds was also evaluated in vitro against E. coli and S. aureus using the microdilution assay with gentamycin as a positive control (MIC < 0.1 µg/mL).
(§2) Antibacterial activity was evaluated using the microdilution method with some modifications. Briefly,
(§3) exponentially growing bacteria were plated in 96-well flat-bottom microplates (BD Falcon) at a density of
(§4) 5 × 103 Gram-negative E. coli (ATCC 25922) or 40 × 103 Gram-positive S. aureus (ATCC 25923) per
(§5) well in 100 μL nutrient broth (Difco). Increasing concentrations of compounds in DMSO (Sigma-Aldrich)
(§6) were then added (100 μL per well). The final concentration of DMSO in the culture medium was
(§7) maintained at 0.25% (v/v) to avoid solvent toxicity. Fifty microliters of 4% resazurin was added to each
(§8) well and the microplates were incubated for 6 h at 37 °C. Absorbance was measured after 6 h on an
(§9) automated 96-well Varioskan plate reader (Thermo-Labsystems) at wavelengths of 600 nm and 660 nm
(§10) for E. coli and S. aureus respectively.

S. aureus (ATCC 25923) = assay: antibacterial microdilution assay, S. aureus; settings: for MIC: Staphylococcus aureus, ATCC25923, 6 h at 37 °C, read-out: MIC against S. aureus
Procedure: as §1, §2, §3, §4, §5, §6, §7, §8, §9, §10

[1] = test system: colon adenocarcinoma (DLD-1); assay: cytotoxicity, resazurin reduction test, DLD-1; settings: Homo sapiens, 48 h incubation, read-out: IC50 (concentration inhibiting 50% of cell growth), DLD-1
Procedure: as §1
(§11) 23-Oxo-3,4-seco-9βH-lanosta-4(28),7-diene-3,26-dioic acid (9): white amorphous solid; [α]22 −26.9° (c
(§12) Cytotoxic activity bioassay
(§13) Lung carcinoma (A549), colon adenocarcinoma (DLD-1) and normal skin fibroblast (WS1) human cell
(§14) lines were purchased from the American Type Culture Collection (ATCC). All cell lines were cultured in […]
(§15) solvent toxicity. Cytotoxicity was assessed using resazurin reduction test on an automated 96-well
(§16) Fluoroskan Ascent F1TM plate reader (Labsystems) using excitation and emission wavelengths of 530 nm
(§17) and 590 nm, respectively. Fluorescence was proportional to the cellular metabolic activity in each well.
(§18) Survival percentages were defined as the fluorescence in experimental wells compared to that in control
(§19) wells after subtraction of blank values. Cytotoxicity results were expressed as mean ± standard deviation […]

lung carcinoma (A549) = assay: cytotoxicity, resazurin reduction test, A549; settings: Homo sapiens, 48 h incubation, read-out: IC50 (concentration inhibiting 50% of cell growth), A549
Procedure: as §1, §11, §12, §13, §14, §15, §16, §17, §18, §19

[2] = test system: normal skin fibroblast (WS1); assay: cytotoxicity, resazurin reduction test, WS1; settings: Homo sapiens, WS1 healthy cell line, 48 h incubation, read-out: IC50 (concentration inhibiting 50% of cell growth), WS1
Procedure: as §1, §11, §12, §13, §14, §15, §16, §17, §18, §19

Row | Compound | MIC (S. aureus (ATCC 25923)) [µM] | IC50 (lung carcinoma (A549)) [nM] | also measured
1 | gentamycin |  |  | MIC against E. coli (positive control) (E. coli (ATCC 25922)): < 0.1 µg/mL; MIC against S. aureus (positive control) (S. aureus (ATCC 25923); 6 h at 37 °C): < 0.1 µg/mL
2 | C=C(C)C1CC=C2C(CCC23C(=C)CCC3(C)C(C)CC(=O)C=C(C)C(=O)O)C1(C)CCC(=O)OC (single isomer, unassigned; (-)) [Compound 1, (−)-rel-abiesonic acid 3-methyl ester] | 25 (≈ 12.4 µg/mL) |  | 
3 | COc1cc([C@@H]2c3cc4c(cc3[C@@H](O[C@@H]3O[C@@H]5CO[C@@H](C)O[C@H]5[C@H](O)[C@H]3O)[C@H]3COC(=O)[C@H]23)OCO4)cc(OC)c1O [Etoposide] |  | ≤ 1000 | IC50 [1]: ≤ 1000 nM; IC50 [2]: ≤ 1000 nM
4 | C=C(CC(=O)CC(C)C1CCC2(C)C3CCC4C(C)(C)C(O)CCC45CC35CCC12C)C(=O)O (single isomer, unassigned; (+)) [Compound 4, (+)-rel-3α-hydroxy-23-oxocycloart-25(27)-en-26-oic acid] | 25 (≈ 11.8 µg/mL) |  | 
5 | C=C(C)C1CC=C2C(CCC23C(=C)CCC3(C)C(C)CC(=O)C=C(C)C(=O)O)C1(C)CCC(=O)O (centres unmarked) [Compound 6, abiesonic acid] |  | 22000 | 

Reference: PMC3740800, “Lanostane- and cycloartane-type triterpenoids from Abies balsamea oleoresin” (Beilstein Journal of Organic Chemistry, 2013)
